Experimental data from patent US12320799B2, “Methods of measuring signaling pathway activity for selection of therapeutic agents” (Celcuity Inc., priority 2017, dated 2025).

Columns and labels:
Type in all cases: cell-based, human
FLT3 signaling pathway = experiment: CELx multiple pathway test, impedance biosensor cell adhesion, FL/Gilteritnib pair; conditions: activator FL
Text: Biosensor and transducer: A 96-well impendence E-Plate (ACEA, San Diego, CA) was placed onto an xCELLigence RTCA MP Station impendence biosensor (ACEA, San Diego, CA). The biosensor measured simultaneously the impedance of every well. The change in impedance for a particular well is proportional to the number of cells and type of attachment the cells have with the impedance microplate. Changes in impedance indicate a response to perturbation of these small cell populations. Coatings: The 96-E-Plate were wells were coated with fibronectin and or collagen. Collagen is purchased from Advanced BioMatrix (Carlsbad, CA) and fibronectin from Sigma-Aldrich (St. Louis, MO). Tissue and cell samples: A total of 18 samples of human tumor cells from breast, lung, colon, ovarian, kidney, bladder cancer were studied. For each of these six different cancer types, tumor cell samples from three different patients were tested. Any biomarkers that are used to guide selection of targeted therapy are listed in Table 18 for each patient if they were present. Signaling Pathways activator agent and targeted therapeutic pairs: Eleven different signaling pathways were studied in each human tumor cell sample using […] signaling pathway activator agent and targeted therapeutic pairs. Each of the signaling pathway activator agent and targeted therapeutic pairs affect the same signaling pathway. Each of the signaling pathway activator agents is a well-characterized and specific agonist of its associated signaling pathway and each of the targeted therapeutic agents is a well-characterized and specific antagonist of the same associated signaling pathway. The signaling pathway activator agents and targeted therapeutics used to characterize the activity level of the associated signaling pathway are summarized in Table 16 below:
Other Reagents: Standard media antibiotics (e.g. penicillin, streptomycin) and other buffers were purchased and used as delivered from ATCC (Manassas, VA, USA) or Life Technologies (Grand Island, NY). Procedure: For each test of a patient cell sample with a pair of signaling pathway activator and targeted therapeutic agents, six wells were seeded with approximately 15,000 cells in 120 uL culture media. Twenty microliters of the targeted therapeutic agent were added to two wells of each patient's cells and 20 microliters of standard media were added to the other four wells for each patient 18 hours in advance of addition of the signaling pathway activator agent. Signaling pathway stimulation was initiated with the addition of 20 ul of the signaling pathway activator agent in the two wells that received a targeted therapeutic agent and in two additional wells for each patient's set of cells without the targeted therapeutic. The impedance recording of attachment and adhesion change was performed at 37° C., 5% C02. Data was recorded on a continuous basis throughout the test, where the data presented is from the initial baseline level of cell attachment compared to the subsequent effects following the targeted therapeutic agent and the signaling pathway activator agent additions on the 18 different patient samples.
(§1) For each of the 18 patient samples, up to 11 different signaling pathways were tested. The output value represents the difference between the amount of cell adhesion change resulting from addition of the signaling pathway activator agent and the amount of cell adhesion change resulting from addition of the targeted therapeutic agent.

[1] = system: HER1, HER3 and c-Met pathways; experiment: CELx test of multiple pathways simultaneously (EGF, NRG1, HGF in combination), impedance biosensor
Text: Biosensor and transducer: A 96-well impendence E-Plate (ACEA, San Diego, CA) was placed onto an xCELLigence RTCA MP Station impendence biosensor (ACEA, San Diego, CA). The biosensor measured simultaneously the impedance of every well. The change in impedance for a particular well is proportional to the number of cells and type of attachment the cells have with the impedance microplate. Changes in impedance indicate a response to perturbation of these small cell populations. Coatings: The 96-E-Plate were wells were coated with fibronectin and or collagen. Collagen is purchased from Advanced BioMatrix (Carlsbad, CA) and fibronectin from Sigma-Aldrich (St. Louis, MO). Tissue and cell samples: Six samples of human tumor cells from breast cancer were studied (C1815, C1596, C1838, C135, C42, C264). Any biomarkers that are used to guide selection of targeted therapy are listed in Table 22 for each patient if they were present. Signaling Pathways activator agent and targeted therapeutic pairs: In each human tumor cell sample, gross signaling activity of the HER1, HER3 and c-Met pathways initiated by three activator agents (EGF, NRG1, HGF) in combination was quantified. […] Each of the signaling pathway activator agents is a well-characterized and specific agonist of its associated signaling pathway. […] The fifth targeted therapeutic tested, taselisib, is an inhibitor that binds to PI3k, which downstream of the HER family and c-Met receptors. Other Reagents: Standard media, antibiotics (e.g. penicillin, streptomycin), and other buffers were purchased and used as delivered from ATCC (Manassas, VA, USA) or Life Technologies (Grand Island, NY). Procedure:
For each test of a patient cell sample with a signaling pathway activator(s) and targeted therapeutic agent(s), six or eight wells were seeded with approximately 15,000 cells in 120 uL culture media; six wells were seeded when only a single drug was evaluated and eight wells were seeded when two drugs were evaluated. When only a single drug was evaluated, 20 uL of the targeted therapeutic agent was added to two wells of each patient's cells and the final concentration of the therapeutic agent in the two wells with the single therapeutic agent was 500 nanomolar. When two therapeutic agents were evaluated, two wells of patient cells received 20 uL of the combined therapeutic agents at a concentration of 500 nanomolar each and an additional two wells of patient cells received 20 uL of the combined therapeutic agents at a concentration of 50 nanomolar each. Twenty microliters of standard media were added to the other four wells for each patient 18 hours in advance of addition of the signaling pathway activator agent(s). Signaling pathway stimulation was initiated with the addition of 20 ul of the signaling pathway activator agent(s) in the two or four wells that received a targeted therapeutic agent(s) and two additional wells for each patient's set of cells. The impedance recording of attachment and adhesion change was performed at 37° C., 5% CO2. Data was recorded on a continuous basis throughout the test, where the data presented if from the initial baseline level of cell attachment compared to the subsequent effects following the targeted therapeutic agent(s) and the signaling pathway activator agent(s) additions on the nine different patient samples.
as §1, with “six” for “18”, “three” for “up to 11”, “pathways (HER1, HER3, c-Met)” for “pathways”, “activated simultaneously.” for “tested.”, “agent(s)” for “agent”, “agent(s).” for “agent.”

c-Met signaling = experiment: CELx ex vivo test of C21 sample agonized only by HGF; conditions: C21 cell sample agonized only by HGF
Experimental: (§2) A HER2+ tumor cell sample, C21, was tested using essentially the same methods described in Examples 1 and 3 above to evaluate the status of the c-Met, EGFR, HER2 and HER3 pathways. […] Thus, this cell sample was suitable to assess whether cells found to be responsive to c-Met and EGFR inhibitors ex vivo in the CELx test would respond to these same inhibitors when another portion of the same cell sample was implanted in a xenograft mouse model.
(§3) This finding is not related to the receptor or gene amplification status of either receptor, nor observable when signaling activity is measured in isolation. This highlights the advantages of evaluating multiple signaling pathways simultaneously in live cells.

[2] = system: HER family signaling pathways and the c-Met signaling pathway; experiment: CELx ex vivo test of C21 sample simultaneously agonized with NRG1, EGF and HGF; conditions: C21 cell sample simultaneously agonized with NRG1, EGF and HGF
Experimental: as §2, §3

CCc1nc(C(N)=O)c(Nc2ccc(N3CCC(N4CCN(C)CC4)CC3)c(OC)c2)nc1NC1CCOCC1 [Gilteritnib]
output value (FLT3 signaling pathway; C2 breast tumor cells): 7
output value (FLT3 signaling pathway; C21 breast tumor cells): 9
output value (FLT3 signaling pathway; C34 breast tumor cells): 10
output value (FLT3 signaling pathway; C54 ovarian tumor cells): 10
output value (FLT3 signaling pathway; C77 ovarian tumor cells): 6

Cc1nc(-c2cn3c(n2)-c2ccc(-c4cnn(C(C)(C)C(N)=O)c4)cc2OCC3)n(C(C)C)n1 [taselisib]
Output value (cell adhesion change, activator agents minus targeted therapeutic agent(s)) ([1]; breast cancer patient sample C42, agent(s) 500 nM each): 246
Output value (cell adhesion change, activator agents minus targeted therapeutic agent(s)) ([1]; breast cancer patient sample C135, agent(s) 500 nM each): 583
Output value (cell adhesion change, activator agents minus targeted therapeutic agent(s)) ([1]; breast cancer patient sample C264, agent(s) 500 nM each): 276
Output value (cell adhesion change, activator agents minus targeted therapeutic agent(s)) ([1]; breast cancer patient sample C1596, agent(s) 500 nM each): 242
Output value (cell adhesion change, activator agents minus targeted therapeutic agent(s)) ([1]; breast cancer patient sample C1815, agent(s) 500 nM each): 385
Output value (cell adhesion change, activator agents minus targeted therapeutic agent(s)) ([1]; breast cancer patient sample C1838, agent(s) 500 nM each): 271

CN1CCC(COc2cnc(-c3cccc(Cn4nc(-c5cccc(C#N)c5)ccc4=O)c3)nc2)CC1 [tepotinib]
percentage of c-Met signaling activity inhibited (c-Met signaling): ~100%
total signaling inhibited [2]: less than 10%
